Measurements: ChEMBL document CHEMBL3045586, “Synthesis and antimicrobial activity of some new 4-triazolylmethoxy-2H-chromen-2-one derivatives” (2012)
In brackets after ≈: the same amount, converted by molar mass.

Tests used:
Candida albicans [1] = assay type: functional, MTCC 227
Candida albicans [2] = test: Antifungal activity against Candida albicans MTCC 227 after 28 to 30 hr by serial dilution method; assay type: functional
Aspergillus flavus [3] = test: Antifungal activity against Aspergillus flavus MTCC 277 at […] to […] ug/ml after 28 to 30 hr by cup-plate method; assay type: functional
Aspergillus niger [4] = test: Antifungal activity against Aspergillus niger MTCC 282 at […] to […] ug/ml after 28 to 30 hr by cup-plate method; assay type: functional
Klebsiella pneumoniae [5] = assay type: functional, MTCC 432
Aspergillus niger [6] = test: Antifungal activity against Aspergillus niger MTCC 282 after 28 to 30 hr by serial dilution method; assay type: functional
Klebsiella pneumoniae [7] = test: Antibacterial activity against Klebsiella pneumoniae MTCC 432 after 16 to 18 hr by serial dilution method; assay type: functional
Salmonella typhi [8] = test: Antibacterial activity against Salmonella enterica subsp. enterica serovar Typhi MTCC 733 at […] to […] ug/ml after 16 to 18 hr by cup-plate method; assay type: functional
Salmonella typhi [9] = test: Antibacterial activity against Salmonella enterica subsp. enterica serovar Typhi MTCC 733 after 16 to 18 hr by serial dilution method; assay type: functional
Pseudomonas aeruginosa [10] = assay type: functional, MTCC 424
Pseudomonas aeruginosa [11] = test: Antibacterial activity against Pseudomonas aeruginosa MTCC 424 after 16 to 18 hr by serial dilution method; assay type: functional
Escherichia coli [12] = test: Antibacterial activity against Escherichia coli MTCC 443 after 16 to 18 hr by serial dilution method; assay type: functional
Escherichia coli [13] = assay type: functional, MTCC 443
Aspergillus flavus [14] = test: Antifungal activity against Aspergillus flavus MTCC 277 after 28 to 30 hr by serial dilution method; assay type: functional
Aspergillus fumigatus [15] = test: Antifungal activity against Aspergillus fumigatus MTCC 343 at […] to […] ug/ml after 28 to 30 hr by cup-plate method; assay type: functional
Aspergillus fumigatus [16] = test: Antifungal activity against Aspergillus fumigatus MTCC 343 after 28 to 30 hr by serial dilution method; assay type: functional
[17] = test system: Staphylococcus epidermidis; assay type: functional, MTCC 435
[18] = test system: Staphylococcus epidermidis; test: Antibacterial activity against Staphylococcus epidermidis MTCC 435 after 16 to 18 hr by serial dilution method; assay type: functional
Bacillus subtilis [19] = test: Antibacterial activity against Bacillus subtilis MTCC 441 after 16 to 18 hr by serial dilution method; assay type: functional
Bacillus subtilis [20] = assay type: functional, MTCC 441
Staphylococcus aureus [21] = assay type: functional, MTCC 096
Staphylococcus aureus [22] = test: Antibacterial activity against Staphylococcus aureus MTCC 096 after 16 to 18 hr by serial dilution method; assay type: functional
Candida albicans [23] = test: Fungicidal activity against Candida albicans MTCC 227 after 3 days; assay type: functional; conditions: MTCC 227, 72 h
Aspergillus niger [24] = test: Fungicidal activity against Aspergillus niger MTCC 282 after 3 days; assay type: functional; conditions: MTCC 282, 72 h
Escherichia coli [25] = test: Bactericidal against Escherichia coli MTCC 443 after 3 days; assay type: functional; conditions: MTCC 443, 72 h
Klebsiella pneumoniae [26] = test: Bactericidal activity against Klebsiella pneumoniae MTCC 432 after 3 days; assay type: functional; conditions: MTCC 432, 72 h
Staphylococcus aureus [27] = test: Bactericidal activity against Staphylococcus aureus MTCC 096 after 3 days; assay type: functional; conditions: MTCC 096, 72 h

Row | SMILES | inhibition zone (IZ) (Candida albicans [1]) [mm] | MIC (Candida albicans [2]) [µg/mL] | inhibition zone (IZ) (Aspergillus flavus [3]) [mm] | inhibition zone (IZ) (Aspergillus niger [4]) [mm] | inhibition zone (IZ) (Klebsiella pneumoniae [5]) [mm] | MIC (Aspergillus niger [6]) [µg/mL] | MIC (Klebsiella pneumoniae [7]) [µg/mL] | inhibition zone (IZ) (Salmonella typhi [8]) [mm] | MIC (Salmonella typhi [9]) [µg/mL] | inhibition zone (IZ) (Pseudomonas aeruginosa [10]) [mm] | MIC (Pseudomonas aeruginosa [11]) [µg/mL] | MIC (Escherichia coli [12]) [µg/mL] | MIC (Aspergillus flavus [14]) [µg/mL] | inhibition zone (IZ) (Aspergillus fumigatus [15]) [mm] | MIC (Aspergillus fumigatus [16]) [µg/mL] | inhibition zone (IZ) [17] [mm] | MIC [18] [µg/mL] | MIC (Bacillus subtilis [19]) [µg/mL] | inhibition zone (IZ) (Bacillus subtilis [20]) [mm] | inhibition zone (IZ) (Staphylococcus aureus [21]) [mm] | also measured
1 | Cc1ccc(-c2nnc(COc3cc(=O)oc4ccccc34)[nH]2)cc1 | 15 | 6.26 (≈ 18.8 µM) | <10 | 13 | 13 | 6.25 (≈ 18.7 µM) | 12.5 (≈ 37.5 µM) | 12 | 12.5 (≈ 37.5 µM) | 11 | 12.5 (≈ 37.5 µM) | 12.5 (≈ 37.5 µM) | 25 (≈ 75 µM) | 11 | 25 (≈ 75 µM) | <10 | 50 (≈ 150 µM) | 12.5 (≈ 37.5 µM) | 11 | 11 | inhibition zone (IZ) (Escherichia coli [13]): 11 mm; MIC (Staphylococcus aureus [22]): 12.5 µg/mL (≈ 37.5 µM)
2 | O=c1cc(OCc2nnc(-c3ccc(Cl)cc3)[nH]2)c2ccccc2o1 | 14 | 6.25 (≈ 17.7 µM) | 12 | 12 | 12 | 12.5 (≈ 35.3 µM) | 12.5 (≈ 35.3 µM) | 12 | 12.5 (≈ 35.3 µM) | 12 | 12.5 (≈ 35.3 µM) | 6.25 (≈ 17.7 µM) | 12.5 (≈ 35.3 µM) | <10 | 25 (≈ 70.7 µM) | <10 | 50 (≈ 141 µM) | 12.5 (≈ 35.3 µM) | 11 | 12 | inhibition zone (IZ) (Escherichia coli [13]): 13 mm; MIC (Staphylococcus aureus [22]): 12.5 µg/mL (≈ 35.3 µM)
3 | O=c1cc(OCc2nnc(-c3ccccc3)[nH]2)c2ccccc2o1 | 14 | 6.25 (≈ 19.6 µM) | 12 | 13 | 11 | 12.5 (≈ 39.1 µM) | 12.5 (≈ 39.1 µM) | <10 | 25 (≈ 78.3 µM) | 11 | 12.5 (≈ 39.1 µM) | 12.5 (≈ 39.1 µM) | 12.5 (≈ 39.1 µM) | 11 | 12.5 (≈ 39.1 µM) | 12 | 12.5 (≈ 39.1 µM) | 12.5 (≈ 39.1 µM) | 11 | 11 | inhibition zone (IZ) (Escherichia coli [13]): 12 mm; MIC (Staphylococcus aureus [22]): 12.5 µg/mL (≈ 39.1 µM)
4 | O=c1cc(OCc2nnc(-c3ccco3)[nH]2)c2ccccc2o1 | 13 | 6.25 (≈ 20.2 µM) | 12 | 14 | 14 | 6.25 (≈ 20.2 µM) | 6.25 (≈ 20.2 µM) | <10 | 25 (≈ 80.8 µM) | 11 | 12.5 (≈ 40.4 µM) | 6.25 (≈ 20.2 µM) | 12.5 (≈ 40.4 µM) | <10 | 25 (≈ 80.8 µM) | <10 | 25 (≈ 80.8 µM) | 50 (≈ 162 µM) | <10 | 15 | MFC (Candida albicans [23]): 25 µg/mL (≈ 80.8 µM); MFC (Aspergillus niger [24]): 12.5 µg/mL (≈ 40.4 µM); MBC (Escherichia coli [25]): 12.5 µg/mL (≈ 40.4 µM); MBC (Klebsiella pneumoniae [26]): 25 µg/mL (≈ 80.8 µM); MBC (Staphylococcus aureus [27]): 12.5 µg/mL (≈ 40.4 µM); inhibition zone (IZ) (Escherichia coli [13]): 15 mm; MIC (Staphylococcus aureus [22]): 6.25 µg/mL (≈ 20.2 µM)
5 | O=c1cc(OCc2nnc(-c3ccc(Br)cc3)[nH]2)c2ccccc2o1 | 12 | 6.25 (≈ 15.7 µM) | 12 | 11 | 13 | 12.5 (≈ 31.4 µM) | 6.25 (≈ 15.7 µM) | 11 | 12.5 (≈ 31.4 µM) | <10 | 25 (≈ 62.8 µM) | 6.25 (≈ 15.7 µM) | 12.5 (≈ 31.4 µM) | <10 | 25 (≈ 62.8 µM) | <10 | 50 (≈ 126 µM) | 12.5 (≈ 31.4 µM) | 12 | 11 | inhibition zone (IZ) (Escherichia coli [13]): 15 mm; MIC (Staphylococcus aureus [22]): 12.5 µg/mL (≈ 31.4 µM)
6 | Clc1ccc(COC(Cn2ccnc2)c2ccc(Cl)cc2Cl)c(Cl)c1 (configuration not stated) [MICONAZOLE] | 15 | 6.25 (≈ 15 µM) | 17 | 17 | – | 6.25 (≈ 15 µM) | – | – | – | – | – | – | 6.25 (≈ 15 µM) | 14 | 12.5 (≈ 30 µM) | – | – | – | – | – | –
7 | O=C(O)c1cn(C2CC2)c2cc(N3CCNCC3)c(F)cc2c1=O [CIPROFLOXACIN] | – | – | – | – | 17 | – | 6.25 (≈ 18.9 µM) | 19 | 6.25 (≈ 18.9 µM) | 16 | – | – | – | – | – | 15 | 6.25 (≈ 18.9 µM) | 6.25 (≈ 18.9 µM) | 18 | 17 | –
8 | COc1ccc(-c2nnc(COc3cc(=O)oc4ccccc34)[nH]2)cc1 | 14 | 6.25 (≈ 17.9 µM) | <10 | 12 | 14 | 6.25 (≈ 17.9 µM) | 6.25 (≈ 17.9 µM) | <10 | 25 (≈ 71.6 µM) | <10 | 50 (≈ 143 µM) | 12.5 (≈ 35.8 µM) | 25 (≈ 71.6 µM) | <10 | 25 (≈ 71.6 µM) | <10 | 25 (≈ 71.6 µM) | 12.5 (≈ 35.8 µM) | 11 | 13 | inhibition zone (IZ) (Escherichia coli [13]): 11 mm; MIC (Staphylococcus aureus [22]): 6.25 µg/mL (≈ 17.9 µM)
9 | O=c1cc(OCc2nnc(-c3ccc(O)cc3)[nH]2)c2ccccc2o1 | 15 | 6.25 (≈ 18.6 µM) | <10 | 12 | 14 | 12.5 (≈ 37.3 µM) | 6.25 (≈ 18.6 µM) | 10 | 25 (≈ 74.6 µM) | <10 | 50 (≈ 149 µM) | 6.25 (≈ 18.6 µM) | 25 (≈ 74.6 µM) | 12 | 12.5 (≈ 37.3 µM) | 11 | 12.5 (≈ 37.3 µM) | 50 (≈ 149 µM) | <10 | 11 | inhibition zone (IZ) (Escherichia coli [13]): 14 mm; MIC (Staphylococcus aureus [22]): 12.5 µg/mL (≈ 37.3 µM)
